Laboratory results: patent publication US11554171B2, “Compounds and methods for the targeted degradation of bromodomain-containing proteins” (Arvinas Operations, Inc., priority 2015, dated 2023)

Tested on: c-myc in 22RV-1 cells
Experiment: Human c-myc ELISA assay
Format: cell-based
Details: Homo sapiens; for Emax: 22Rv1, 18 h, read-out: Degradation of BRD4: Maximum inhibition (%) c-Myc ELISA in 22RV1 cells; for DC50: 22Rv1, read-out: Degradation of BRD4: DC50 (uM) c-Myc ELISA in 22RV1 cells
In short: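 22RV-1 cells treated 18 h with 8-point 1:3 compound dilutions (final top 300 nM or 1 μM, 0.1% DMSO). Cells lysed in RIPA buffer with protease/phosphatase inhibitors, and c-myc protein in cleared lysate quantified by ELISA against a standard curve. DC50 reported for c-myc suppression.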

Row | SMILES | Emax [%] | DC50 [µM]
1 | Cc1ncsc1-c1ccc([C@H](C)NC(=O)[C@@H]2C[C@@H](O)CN2C(=O)[C@@H](C(C)C)n2cc(-c3ccnc(O[C@H]4C[C@@H](NC(=O)C[C@@H]5N=C(c6ccc(Cl)cc6)c6c(sc(C)c6C)-n6c(C)nnc65)C4)c3)cn2)cc1 [Example 218, (2S,4R)-4-hydroxy-N-[(1S)-1-[4-(4-methyl-1,3-thiazol-5-yl)phenyl]ethyl]-1-[(2R)-3-methyl-2-(4-{2-1[(1,3-cis)-3-{2-[(9S)-7-(4-chlorophenyl)-4,5,13-trimethyl-3-thia-1,8,11,12-tetraazatricyclo[8.3.0.0^2,^6]trideca-2(6),4,7,10,12-pentaen-9-yl]acetamido}cyclobutoxy]pyridin-4-yl}-1H-pyrazol-1-yl)butanoyl]pyrrolidine-2-carboxamide] | 48 | > 1
2 | Cc1ncsc1-c1ccc(CNC(=O)[C@@H]2C[C@@H](O)CN2C(=O)[C@@H](NC(=O)COCCCOCCCOc2ccc(NC(=O)C[C@@H]3N=C(c4ccc(Cl)cc4)c4c(sc(C)c4C)-n4c(C(C)C)nnc43)cc2)C(C)(C)C)cc1 [Example 54] | 63 | > 1
3 | Cc1ncsc1-c1ccc([C@H](C)NC(=O)[C@@H]2C[C@@H](O)CN2C(=O)[C@H](n2cc(-c3ccnc(O[C@H]4C[C@H](NC(=O)C[C@@H]5N=C(c6ccc(Cl)cc6)c6c(sc(C)c6C)-n6c(C)nnc65)C4)c3)cn2)C(C)(C)C)cc1 [Example 233] | 26 | > 1
4 | Cc1ncsc1-c1ccc(CNC(=O)[C@@H]2C[C@@H](O)CN2C(=O)[C@@H](NC(=O)COCCN2CCN(c3ccc([C@@H](C)NC(=O)C[C@@H]4N=C(c5ccc(Cl)cc5)c5c(sc(C)c5C)-n5c(C)nnc54)cc3)CC2)C(C)(C)C)cc1 [Example 59] | 95 | 0.1 to 1
5 | Cc1ncsc1-c1ccc(CNC(=O)[C@@H]2C[C@@H](O)CN2C(=O)[C@@H](NC(=O)COCCCOc2ccc(-c3ccc(NC(=O)C[C@@H]4N=C(c5ccc(Cl)cc5)c5c(sc(C)c5C)-n5c(C)nnc54)c(F)c3)nc2)C(C)(C)C)cc1 [Example 24] | 87.5 | 0.01 to 0.1
6 | Cc1sc2c(c1C)C(c1ccc(Cl)cc1)=N[C@@H](CC(=O)N[C@H]1C[C@@H](Oc3ccc4oc(C(=O)N[C@H](C(=O)N5C[C@H](O)C[C@H]5C(=O)N[C@@H](C)c5ccc(-n6ccnc6C)cc5)C(C)(C)C)cc4c3)C1)c1nnc(C)n1-2 [Example 261] | 92.7 | 0.01 to 0.1
7 | Cc1ncsc1-c1ccc(CNC(=O)[C@@H]2C[C@@H](O)CN2C(=O)[C@@H](NC(=O)COCCCOCCCCCNC(=O)C[C@@H]2N=C(c3ccc(Cl)cc3)c3c(sc(C)c3C)-n3c(C)nnc32)C(C)(C)C)cc1 [Example 50, (2S,4R)-1-[(2S)-2-(2-{3-[(5-{2-[(9S)-7-(4-chlorophenyl)-4,5,13-trimethyl-3-thia-1,8,11,12-tetraazatricyclo[8.3.0.0^2,^6]trideca-2(6),4,7, 10,12-pentaen-9-yl]acetamido}pentyl)oxy]propoxy}acetamido)-3,3-dimethylbutanoyl]-4-hydroxy-N-{[4-(4-methyl-1,3-thiazol-5-yl)phenyl]methyl}pyrrolidine-2-carboxamide] | 98 | < 0.01
8 | Cc1ncsc1-c1ccc([C@H](C)NC(=O)[C@@H]2C[C@@H](O)CN2C(=O)[C@@H](NC(=O)COc2nccc(N3CCN(C(=O)C[C@@H]4N=C(c5ccc(Cl)cc5)c5c(sc(C)c5C)-n5c(C)nnc54)CC3)n2)C(C)(C)C)cc1 [Example 331] | 81.5 | 0.1 to 1
9 | Cc1ncsc1-c1ccc([C@H](C)NC(=O)[C@@H]2C[C@@H](O)CN2C(=O)[C@@H](NC(=O)COc2cccc(OCCNC(=O)C[C@@H]3N=C(c4ccc(Cl)cc4)c4c(sc(C)c4C)-n4c(C)nnc43)c2)C(C)(C)C)cc1 [Example 127, (2S,4R)-1-[(2S)-2-{2-[3-(2-{2-[(9S)-7-(4-chlorophenyl)-4,5,13-trimethyl-3-thia-1,8,11,12-tetraazatricyclo[8.3.0.0^2,^6]trideca-2(6),4,7,10,12-pentaen-9-yl]acetamido}ethoxy)phenoxy]acetamido}-3,3-dimethylbutanoyl]-4-hydroxy-N-[(1S)-1-[4-(4-methyl-1,3-thiazol-5-yl)phenyl]ethyl]pyrrolidine-2-carboxamide] | 99 | < 0.01
10 | CCc1nnc2n1-c1sc(C)c(C)c1C(c1ccc(Cl)cc1)=N[C@H]2CC(=O)Nc1ccc(OCCCOCCCOCC(=O)N[C@H](C(=O)N2C[C@H](O)C[C@H]2C(=O)NCc2ccc(-c3scnc3C)cc2)C(C)(C)C)cc1 [Example 47] | 89 | 0.1 to 1
11 | Cc1ncsc1-c1ccc(CNC(=O)[C@@H]2C[C@@H](O)CN2C(=O)[C@@H](C(C)C)n2cc(-c3cccc(O[C@H](C)CNC(=O)C[C@@H]4N=C(c5ccc(Cl)cc5)c5c(sc(C)c5C)-n5c(C)nnc54)c3)cn2)cc1 [Example 231] | 39.5 | > 1
12 | Cc1ncsc1-c1ccc([C@H](C)NC(=O)[C@@H]2C[C@@H](O)CN2C(=O)[C@@H](NC(=O)c2ccc(OCCCNC(=O)C[C@@H]3N=C(c4ccc(Cl)cc4)c4c(sc(C)c4C)-n4c(C)nnc43)cn2)C(C)(C)C)cc1 [Example 114, 5-(3-{2-[(9S)-7-(4-chlorophenyl)-4,5,13-trimethyl-3-thia-1,8,11,12-tetraazatricyclo[8.3.0.0^2,^6]trideca-2(6),4,7,10,12-pentaen-9-yl]acetamido}propoxy)-N-[(2S)-1-[(2S,4R)-4-hydroxy-2-{[(1S)-1-[4-(4-methyl-1,3-thiazol-5-yl)phenyl]ethyl]carbamoyl}pyrrolidin-1-yl]-3,3-dimethyl-1-oxobutan-2-yl]pyridine-2-carboxamide] | 99.5 | < 0.01
13 | Cc1ncsc1-c1ccc([C@H](C)NC(=O)[C@@H]2C[C@@H](O)CN2C(=O)[C@@H](NC(=O)/C=C/c2cccc(OCCNC(=O)C[C@@H]3N=C(c4ccc(Cl)cc4)c4c(sc(C)c4C)-n4c(C)nnc43)c2)C(C)(C)C)cc1 [Example 122] | 100 | < 0.01
14 | Cc1ncsc1-c1ccc([C@H](C)NC(=O)[C@@H]2C[C@@H](O)CN2C(=O)[C@@H](NC(=O)COCCOCCCOc2ccc([C@H](C)NC(=O)C[C@H]3N=C(c4ccc(Cl)cc4)c4c(sc(C)c4C)-n4c(C)nnc43)cc2)C(C)(C)C)cc1 [Example 109] | < 5 | > 1
15 | Cc1ncsc1-c1ccc([C@H](C)NC(=O)[C@@H]2C[C@@H](O)CN2C(=O)[C@@H](NC(=O)CN2CCN(C3CC4(C3)CN(C(=O)C[C@@H]3N=C(c5ccc(Cl)cc5)c5c(sc(C)c5C)-n5c(C)nnc53)C4)[C@@H](C)C2)C(C)(C)C)cc1 [Example 354, (2S,4R)-1-[(2S)-2-{2-[(3S)-4-(2-{2-[(9S)-7-(4-chlorophenyl)-4,5,13-trimethyl-3-thia-1,8,11,12-tetraazatricyclo[8.3.0.0^2,^6]trideca-2(6),4,7,10,12-pentaen-9-yl]acetyl}-2-azaspiro[3.3]heptan-6-yl)-3-methyl-piperazin-1-yl]acetamido}-3,3-dimethylbutanoyl]-4-hydroxy-N-[(1S)-1-[4-(4-methyl-1,3-thiazol-5-yl)phenyl]ethyl]pyrrolidine-2-carboxamide] | 100 | 0.01 to 0.1
16 | Cc1ncsc1-c1ccc([C@H](C)NC(=O)[C@@H]2C[C@@H](O)CN2C(=O)[C@@H](NC(=O)CN2CCN(C3CC4(C3)CN(C(=O)C[C@@H]3N=C(c5ccc(Cl)cc5)c5c(sc(C)c5C)-n5c(C)nnc53)C4)C[C@H]2C)C(C)(C)C)cc1 [Example 356] | 100 | 0.01 to 0.1
17 | Cc1ncsc1-c1ccc(CNC(=O)[C@@H]2C[C@@H](O)CN2C(=O)[C@@H](NC(=O)COCCCOCCCOc2ccc(NC(=O)C[C@@H]3N=C(c4ccc(Cl)cc4)c4c(sc(C)c4C)-n4cnnc43)cc2)C(C)(C)C)cc1 [Example 53] | 56 | > 1
18 | Cc1ncsc1-c1ccc([C@H](C)NC(=O)[C@@H]2C[C@@H](O)CN2C(=O)[C@@H](NC(=O)c2cc3cc(O[C@@H](C)CNC(=O)C[C@@H]4N=C(c5ccc(Cl)cc5)c5c(sc(C)c5C)-n5c(C)nnc54)ccc3o2)C(C)(C)C)cc1 [Example 205, (2S,4R)-1-[(2S)-2-[(5-{[(2S)-1-{2-[(9S)-7-(4-chlorophenyl)-4,5,13-trimethyl-3-thia-1,8,11,12-tetraazatricyclo[8.3.0.0^2,^6]trideca-2(6),4,7,10,12-pentaen-9-yl]acetamido}propan-2-yl]oxy}-1-benzofuran-2-yl)formamido]-3,3-dimethylbutanoyl]-4-hydroxy-N-[(1S)-1-[4-(4-methyl-1,3-thiazol-5-yl)phenyl]ethyl]pyrrolidine-2-carboxamide] | 91 | < 0.01
19 | Cc1ncsc1-c1ccc(CNC(=O)[C@@H]2C[C@@H](O)CN2C(=O)[C@@H](C(C)C)n2cc(-c3ccnc(O[C@H](C)CNC(=O)C[C@@H]4N=C(c5ccc(Cl)cc5)c5c(sc(C)c5C)-n5c(C)nnc54)c3)cn2)cc1 [Example 167] | 27.6 | > 1
20 | Cc1ncsc1-c1ccc(CNC(=O)[C@@H]2C[C@@H](O)CN2C(=O)[C@@H](NC(=O)COc2ccc(S(=O)(=O)CCNC(=O)C[C@@H]3N=C(c4ccc(Cl)cc4)c4c(sc(C)c4C)-n4c(C)nnc43)cc2)C(C)(C)C)cc1 [Example 113] | 88.5 | 0.01 to 0.1
21 | CNC[C@@H](NC(=O)[C@@H]1C[C@@H](O)CN1C(=O)[C@@H](NC(=O)COCCCOCCNC(=O)C[C@@H]1N=C(c2ccc(Cl)cc2)c2c(sc(C)c2C)-n2c(C)nnc21)C(C)(C)C)c1ccc(-c2scnc2C)cc1 [Example 111] | 47.3 | > 1
22 | Cc1ncsc1-c1ccc([C@H](C)NC(=O)[C@@H]2C[C@@H](O)CN2C(=O)[C@@H](NC(=O)CCc2cc(F)cc(O[C@@H](C)CNC(=O)C[C@@H]3N=C(c4ccc(Cl)cc4)c4c(sc(C)c4C)-n4c(C)nnc43)c2)C(C)(C)C)cc1 [Example 200] | 96.5 | < 0.01
23 | Cc1ncsc1-c1ccc([C@H](C)NC(=O)[C@@H]2C[C@@H](O)CN2C(=O)[C@@H](NC(=O)C[C@@H]2N=C(c3ccc(Cl)cc3)c3c(sc(C)c3C)-n3c(C)nnc32)C(C)(C)C)cc1 [Example 349] | 22 | > 1
